Tests used:
Assay type in all cases: in vivo, Solanum tuberosum
[1] = system: Russet Burbank seed tubers; test: Example 4: sprout inhibition by aldehyde vapors, 26 days of sprouting; conditions: 12 hours vapor, 26 days at 18° C.
Protocol: Methods: Eleven-month-old Russet Burbank seed tubers were taken from a 4° C. storage area and exposed to trans-2-hexenal (0.6-4.3 mmol/kg), trans-2-heptenal (0.6-3.8 mmol/kg) and trans-2-octenal (0.5-2.5 mmol/kg) vapors separately in 3.9 L glass containers for 12 hours at 23° C. The aldehydes were applied to filter paper inside petri dishes within each jar. Control tubers were enclosed in a glass container without any aldehyde. Sprouts were ‘peeping’ (approximately 3 mm in length) at the time of treatment. Following treatment, tubers were placed at 18° C. (95% relative humidity) in the dark to sprout for 26 days. The experiment was set up in a randomized complete block design (5 replicates) with chemicals and concentrations arranged factorially. Effects of the aliphatic aldehydes on the development of etiolated sprouts were documented at 20 days (photographically) and 26 days of sprouting.

[2] = system: Russet Burbank and Ranger Russet seed-tubers; test: Example 5: sprout inhibition by C5 to C9 trans-2 aldehydes over prolonged storage (17 weeks); conditions: 0.5, 0.75 and 1.0 mmol/kg tuber, 24 hours, 17 weeks at 8° C.; for inhibition of sprout development (in words): 95% RH
Protocol: (46° F.), 95% relative humidity (RH), for 17 weeks. As described more fully in Example 5, four-month-old tubers (previously stored at 4° C.) were treated (for 24 h) with different concentrations of the aldehydes in mid January. The treated tubers were then stored in the dark for 120 days (17 weeks).
Methods: Four-month-old Russet Burbank and Ranger Russet seed-tubers were taken from a 4° C. storage area and treated (Jan. 10, 2001) separately with 0, 0.5, 0.75 and 1.0 mmol/kg tuber of trans-2-pentenal, trans-2-hexenal, trans-2-heptenal, trans-2-octenal, and trans-2-nonenal in 3.9 L glass jars. The volume of inhibitor required to achieve the above rates was pipetted onto filter paper discs inside the lids of each jar. The concentration of inhibitors in the headspace of the jars was equal at 0.16 mmol/L. The tubers were enclosed in the jars and thus exposed to inhibitor vapor for 24 hours at 23° C. Control tubers were enclosed in a glass jar without any aldehyde. Following treatment, tubers were removed from the jars and placed at 8° C. (46° F.) (95% relative humidity) in the dark to sprout for 120 days (17 weeks). The experiment was set up in a randomized complete block design (5 replicates) with chemicals and concentrations arranged factorially. Effects of the aliphatic aldehydes on the development of etiolated sprouts were documented photographically and quantitatively (sprout number and fresh weight) after 120 days of storage.

[3] = system: Russet Burbank tubers; test: Example 6: reconditioning, sprout fresh weight and fry color; conditions: 0.45 mmol/kg
Protocol: Seven-month-old tubers from 4° C. (40° F.) storage were treated with 0.45 mmol/kg trans-2-nonenal for 17 hours at 23° C. The tubers were then placed at 14° C. (57° F.) to recondition. French fries were processed from the tubers through four weeks of reconditioning. Fry color (lightness or darkness) was quantified with a photovolt reflectance meter. High photovolt values indicate light-colored fries (high processing quality). Low photovolt values indicate low-quality, dark-colored fries.
Methods: Russet Burbank tubers were stored at 7° C. (44° F.) from harvest Oct. 29, 2000 to Jan. 26, 2001. The tubers were transferred to 4° C. (40° F.) on Jan. 26, 2001, until treatment on Apr. 2, 2001. Tubers were treated with 0.45 mmol/kg trans-2-nonenal in 9.2 L glass desiccators for 17 hours at 23° C. Following treatment, the tubers were placed at 14° C. (57° F.) to recondition for 0, 1, 2, 3 and 4 weeks. […] Fry darkness of the apical and basal ends of the fries was quantified with a photovolt reflectance meter within three minutes of frying. A high reflectance reading (photovolt unit) indicates light fry color due to a relatively low sugar level and thus a high-quality processed product. Conversely, a low reflectance reading indicates dark fry color due to high sugar content, resulting in low processing quality. […] Sprout fresh weight and fry color were recorded.

For `CCCC/C=C/C=O` [trans-2-heptenal], the “Average Sprout Length” value ([1]; 0.56 mmol/kg) was 0.2 cm/tuber, the “Sprout Fresh Weight” value ([1]; 0.56 mmol/kg) was 0.01 g/tuber and the “Average Sprout Length” value ([1]; 1.11 mmol/kg) was 0 cm/tuber. For the same compound, the “Sprout Fresh Weight” value ([1]; 1.11 mmol/kg) was 0 g/tuber, the “Average Sprout Length” value ([1]; 1.69 mmol/kg) was 0 cm/tuber and the “Sprout Fresh Weight” value ([1]; 1.69 mmol/kg) was 0 g/tuber. The “Average Sprout Length” value ([1]; 2.16 mmol/kg) was 0 cm/tuber, the “Sprout Fresh Weight” value ([1]; 2.16 mmol/kg) was 0 g/tuber and the “Average Sprout Length” value ([1]; 3.85 mmol/kg) was 0 cm/tuber. The “Sprout Fresh Weight” value ([1]; 3.85 mmol/kg) was 0 g/tuber and the “inhibition of sprout development (in words)” value (from here on “inhibition”) [2] was “inhibited sprouting in a concentration-dependent manner”.

With `CCCCCC/C=C/C=O` [trans-2-nonenal] the “external pitting damage to the periderm (in words)” value [2] was “did not induce external pitting damage”, the “inhibition” value [2] was “totally inhibited sprout development” and the “sprouts produced (fresh weight)” value ([3]; 17 hours at 23° C., four weeks of reconditioning at 57° F.) was 13.5 g fresh weight/12 tubers. For the same compound, the “processing quality (fry color, photovolt reflectance) (in words)” value ([3]; from 2 to 4 weeks of reconditioning at 57° F.) was “continued to increase”.

With `CCCCC/C=C/C=O` [trans-2-octenal] the “Average Sprout Length” value ([1]; 0.50 mmol/kg) was 0 cm/tuber, the “Sprout Fresh Weight” value ([1]; 0.50 mmol/kg) was 0 g/tuber and the “Average Sprout Length” value ([1]; 0.97 mmol/kg) was 0 cm/tuber. The “Sprout Fresh Weight” value ([1]; 0.97 mmol/kg) was 0 g/tuber, the “Average Sprout Length” value ([1]; 1.44 mmol/kg) was 0 cm/tuber and the “Sprout Fresh Weight” value ([1]; 1.44 mmol/kg) was 0 g/tuber. The “Average Sprout Length” value ([1]; 1.93 mmol/kg) was 0.2 cm/tuber, the “Sprout Fresh Weight” value ([1]; 1.93 mmol/kg) was 0.10 g/tuber and the “Average Sprout Length” value ([1]; 2.48 mmol/kg) was 0.2 cm/tuber. The “Sprout Fresh Weight” value ([1]; 2.48 mmol/kg) was 0.13 g/tuber, the “external pitting damage to the periderm (in words)” value [2] was “did not induce external pitting damage” and the “inhibition” value [2] was “totally inhibited sprout development”.

`CC/C=C/C=O` [trans-2-pentenal] was tested, and the “inhibition” value [2] was “inhibited sprouting in a concentration-dependent manner”.

From US6855669B2, “Use of α,β unsaturated aliphatic aldehydes and ketones to inhibit potato tuber sprouting” (Washington State University Research Foundation, priority 2000, dated 2005)
